The source of these data is ChEMBL document CHEMBL1148013, “Synthesis, biological evaluation and molecular modeling studies of arylidene-thiazolidinediones with potential hypoglycemic and hypolipidemic activities” (2007).

Type in all cases: functional
Holding throughout (design): scale not given: the % may be the effect or the level left

In assay [1] the test system is Mus musculus. Put plainly: Reduction in plasma glucose level in alloxan-induced diabetic mouse at 10 mg/kg/day, po after 15 days relative to control.
Assay [2] deals with Mus musculus. Put plainly: Reduction in plasma glucose level in alloxan-induced diabetic mouse at 30 mg/kg/day, po after 15 days relative to control.
Assay [3] has as its system Mus musculus. Put plainly: Reduction in plasma glucose level in alloxan-induced diabetic mouse at 5 mg/kg/day, po after 15 days relative to control.
Assay [4] has as its system Mus musculus. The assay is described as follows: Reduction in plasma triglyceride level in alloxan-induced diabetic mouse at 10 mg/kg/day, po after 15 days relative to control.
The subject of assay [5] is Mus musculus. Put plainly: Reduction in plasma triglyceride level in alloxan-induced diabetic mouse at 30 mg/kg/day, po after 15 days relative to control.
The subject of assay [6] is Mus musculus. The assay is described as follows: Reduction in plasma triglyceride level in alloxan-induced diabetic mouse at 5 mg/kg/day, po after 15 days relative to control.
Assay [7] relates to Mus musculus. Put plainly: Reduction in plasma glucose level in alloxan-induced diabetic mouse at 40 mg/kg/day, po after 15 days relative to control.
The test system of assay [8] is Mus musculus. Put plainly: Reduction in plasma glucose level in alloxan-induced diabetic mouse at 20 mg/kg/day, po after 15 days relative to control.
For assay [9], the system named is Mus musculus. The assay is described as follows: Reduction in plasma triglyceride level in alloxan-induced diabetic mouse at 20 mg/kg/day, po after 15 days relative to control.
Assay [10] has as its system Mus musculus. Put plainly: Reduction in plasma triglyceride level in alloxan-induced diabetic mouse at 40 mg/kg/day, po after 15 days relative to control.

Each structure is given as a SMILES string.

With `COc1ccc(/C=C2\SC(=O)N(Cc3ccc(C)cc3)C2=O)cc1`, the Activity in assay [1] was determined as 20.6%; in assay [2] it was 50.8%; in assay [3], 27.2%; in assay [4], 37.6%; in assay [5], 58.8%; in assay [6], 32.2%.
In the case of `COc1ccc(/C=C2\SC(=O)N(Cc3ccc(C)cc3)C2=O)c(OC)c1`, the Activity in assay [1] came to 21.8%; in assay [2], 34.6%; in assay [7], 20.1%; in [4], 40%; in assay [5], 46.5%.
In the case of `Cc1ccc(CN2C(=O)S/C(=C\c3ccc(O)cc3)C2=O)cc1`, the Activity was 19.9% in assay [1], 37.3% in assay [2] and 37.2% in assay [7].
For `Cc1ccc(CN2C(=O)S/C(=C\c3ccc(F)cc3)C2=O)cc1`, in assay [2], the Activity stood at 13.5%.
As for `Cc1ccc(CN2C(=O)S/C(=C\c3ccccc3Cl)C2=O)cc1`, the Activity in assay [1] turned out to be 19.2%; in assay [2], 43.3%; in assay [8], 47%; in [4], 14.8%; in assay [5], 26%; in [9], 20%.
Consider `Cc1ccc(CN2C(=O)S/C(=C\c3cccc(Br)c3)C2=O)cc1`, for which the values for the Activity in assay [1] and in assay [4] were 21.3% and 17.6%, respectively.
Turning to `Cc1ccc(CN2C(=O)S/C(=C\c3ccc(N(C)C)cc3)C2=O)cc1`, the Activity in [1] turned out to be 14.9%; in [2], 40.8%; in [8], 35.8%; in assay [5], 44.1%; in assay [9], 17.4%.
In the case of `Cc1ccc(CN2C(=O)S/C(=C\c3ccc(Cl)cc3)C2=O)cc1`, the Activity was determined as 18.7% in assay [1]; 22.8% in [2]; 31.5% in assay [7]; 48% in assay [5]; 27.1% in [10].
As for `Cc1ccc(/C=C2\SC(=O)N(Cc3ccc(C)cc3)C2=O)cc1`, the Activity turned out to be 16.3% in assay [1] and 41.7% in assay [4].
As for `Cc1ccc(CN2C(=O)S/C(=C\c3ccc([N+](=O)[O-])cc3)C2=O)cc1`, the Activity is 11.42% in assay [2] and 7.1% in assay [5].
`CN(CCOc1ccc(CC2SC(=O)NC2=O)cc1)c1ccccn1` (stereo not drawn) [ROSIGLITAZONE]: the Activity in [1] is 36.7%; in assay [2], 11.6%; in assay [3], 26.3%; in assay [4], 43.3%; in [5], 6.4%; in assay [6] it was 15.9%.
